Experimental data published in patent US12065436B2, “Cardiac sarcomere inhibitors” (Cytokinetics, Inc., priority 2018, dated 2024).

Biological target: bovine cardiac myofibrils (full-length cardiac myosin ATPase in the native sarcomere) (Bos taurus (Bovine), UniProt Q9BE39)
Test: Skinned bovine cardiac myofibril ATPase assay (PK/LDH-coupled)
Format: biochemical
Conditions: Ca2+ activating to 75% of maximal rate; for CDMF75 IC15: concentration giving 15% inhibition; for IC50: read-out: CDMF75 IC50
How it was run: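 Inhibition of steady-state ATPase read at 340 nm through a PK/LDH-coupled NADH system (0.5 mM NADH, 1.5 mM PEP). Detergent-skinned bovine cardiac myofibrils, 1 mg/mL, were tested at pH 6.8 in PIPES/MgCl2 with 50 μM ATP and calcium adjusted to give pCa50 or pCa75 activation.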

Chain of bovine cardiac myofibrils (full-length cardiac myosin ATPase in the native sarcomere) (Q9BE39 whole entry): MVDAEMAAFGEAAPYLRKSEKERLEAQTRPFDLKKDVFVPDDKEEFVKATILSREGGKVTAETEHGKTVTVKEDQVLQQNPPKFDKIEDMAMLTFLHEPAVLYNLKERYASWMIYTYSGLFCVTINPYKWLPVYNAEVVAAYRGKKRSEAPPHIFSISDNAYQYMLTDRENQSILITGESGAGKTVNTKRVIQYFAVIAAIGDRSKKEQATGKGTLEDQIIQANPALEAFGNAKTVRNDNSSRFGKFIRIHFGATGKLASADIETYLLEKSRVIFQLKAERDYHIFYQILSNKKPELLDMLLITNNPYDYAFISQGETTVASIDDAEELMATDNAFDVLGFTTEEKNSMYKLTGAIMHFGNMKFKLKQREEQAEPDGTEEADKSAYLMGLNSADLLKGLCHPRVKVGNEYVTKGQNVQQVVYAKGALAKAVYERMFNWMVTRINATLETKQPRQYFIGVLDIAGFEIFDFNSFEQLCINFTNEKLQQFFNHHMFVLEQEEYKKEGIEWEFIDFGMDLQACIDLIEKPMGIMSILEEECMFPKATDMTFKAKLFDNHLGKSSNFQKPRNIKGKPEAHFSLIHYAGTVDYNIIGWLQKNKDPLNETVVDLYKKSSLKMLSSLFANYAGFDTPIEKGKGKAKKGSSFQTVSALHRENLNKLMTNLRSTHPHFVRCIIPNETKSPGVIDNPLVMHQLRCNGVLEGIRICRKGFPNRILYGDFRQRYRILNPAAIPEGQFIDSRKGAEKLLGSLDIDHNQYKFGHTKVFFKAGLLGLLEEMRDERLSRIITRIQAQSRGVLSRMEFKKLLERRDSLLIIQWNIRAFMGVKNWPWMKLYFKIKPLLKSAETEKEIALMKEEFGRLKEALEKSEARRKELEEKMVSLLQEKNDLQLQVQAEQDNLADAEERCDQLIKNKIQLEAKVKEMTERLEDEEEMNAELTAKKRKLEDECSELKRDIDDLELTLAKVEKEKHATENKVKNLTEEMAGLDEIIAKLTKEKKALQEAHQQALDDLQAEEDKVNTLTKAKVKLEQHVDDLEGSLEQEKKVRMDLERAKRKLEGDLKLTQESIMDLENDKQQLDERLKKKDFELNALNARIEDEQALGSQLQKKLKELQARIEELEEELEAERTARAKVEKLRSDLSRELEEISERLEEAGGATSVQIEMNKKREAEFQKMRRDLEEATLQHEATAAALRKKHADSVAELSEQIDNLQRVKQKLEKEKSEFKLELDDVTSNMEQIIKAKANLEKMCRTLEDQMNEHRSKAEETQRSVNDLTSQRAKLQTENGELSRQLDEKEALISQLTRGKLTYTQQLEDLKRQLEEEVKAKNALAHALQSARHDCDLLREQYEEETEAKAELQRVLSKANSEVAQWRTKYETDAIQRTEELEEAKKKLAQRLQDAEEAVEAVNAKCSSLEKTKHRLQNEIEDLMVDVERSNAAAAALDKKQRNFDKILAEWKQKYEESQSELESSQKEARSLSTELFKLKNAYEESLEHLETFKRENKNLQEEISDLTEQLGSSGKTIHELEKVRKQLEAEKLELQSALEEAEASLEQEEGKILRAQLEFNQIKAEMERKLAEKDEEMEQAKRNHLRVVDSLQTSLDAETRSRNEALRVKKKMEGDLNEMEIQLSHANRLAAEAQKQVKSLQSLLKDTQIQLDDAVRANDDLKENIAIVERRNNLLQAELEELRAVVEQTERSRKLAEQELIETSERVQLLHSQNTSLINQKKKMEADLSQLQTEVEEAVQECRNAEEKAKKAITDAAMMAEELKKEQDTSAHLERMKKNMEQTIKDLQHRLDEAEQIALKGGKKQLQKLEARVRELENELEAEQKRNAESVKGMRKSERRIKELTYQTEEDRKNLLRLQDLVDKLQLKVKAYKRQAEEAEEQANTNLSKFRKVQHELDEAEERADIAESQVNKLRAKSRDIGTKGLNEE
Chain of bovine cardiac myofibrils (full-length cardiac myosin ATPase in the native sarcomere) (P85100 whole entry partner): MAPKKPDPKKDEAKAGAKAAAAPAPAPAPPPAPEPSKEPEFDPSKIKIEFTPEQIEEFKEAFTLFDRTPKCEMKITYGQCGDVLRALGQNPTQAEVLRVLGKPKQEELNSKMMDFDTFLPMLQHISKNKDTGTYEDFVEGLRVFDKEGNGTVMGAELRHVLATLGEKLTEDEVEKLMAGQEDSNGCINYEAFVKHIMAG
Chain of bovine cardiac myofibrils (full-length cardiac myosin ATPase in the native sarcomere) (Q3SZE5 whole entry partner): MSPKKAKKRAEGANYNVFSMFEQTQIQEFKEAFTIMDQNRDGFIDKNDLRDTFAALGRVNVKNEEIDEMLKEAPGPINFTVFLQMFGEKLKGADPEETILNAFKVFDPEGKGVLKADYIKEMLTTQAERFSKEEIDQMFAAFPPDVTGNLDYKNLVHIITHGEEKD

Row | Compound | CDMF75 IC15 | IC50
1 | Cc1nc(-c2ccc3c(c2)CC[C@H]3NC(=O)c2oc(C)nc2C)no1 [Compound 112, (R)-2,4-dimethyl-N-(5-(5-methyl-1,2,4-oxadiazol-3-yl)-2,3-dihydro-1H-inden-1-yl)oxazole-5-carboxamide] | 1.5 µM | 5.2 µM
2 | CCc1nc(-c2ccc3c(c2)CC[C@H]3NC(=O)c2cnn(CC(N)=O)c2)no1 [Compound 475, (R)-1-(2-amino-2-oxoethyl)-N-(5-(5-ethyl-1,2,4-oxadiazol-3-yl)-2,3-dihydro-1H-inden-1-yl)-1H-pyrazole-4-carboxamide] | 0.9 µM | 3.8 µM
3 | CCc1nc(-c2ccc3c(c2)CC[C@H]3NC(=O)c2cnn(CCCOC)c2C)no1 [Compound 598, (R)-N-(5-(5-ethyl-1,2,4-oxadiazol-3-yl)-2,3-dihydro-1H-inden-1-yl)-1-(3-methoxypropyl)-5-methyl-1H-pyrazole-4-carboxamide] | 3.9 µM | 15.7 µM
4 | Cn1nccc1C(=O)N[C@@H]1CCc2cc(-c3ccccn3)ccc21 [Compound 367, (R)-1-methyl-N-(5-(pyridin-2-yl)-2,3-dihydro-1H-inden-1-yl)-1H-pyrazole-5-carboxamide] | 13.9 µM | > 39.2 µM
5 | COCc1nc(-c2ccc3c(c2)CC[C@H]3NC(=O)c2cc(CO)ccc2F)no1 [Compound 671, (R)-2-fluoro-5-(hydroxymethyl)-N-(5-(5-(methoxymethyl)-1,2,4-oxadiazol-3-yl)-2,3-dihydro-1H-inden-1-yl)benzamide] | 6.5 µM | 30.2 µM
6 | Cc1nc(-c2ccc3c(c2)CCC3NC(=O)c2ocnc2C)no1 (stereo not shown) [Compound 51, 4-methyl-N-(5-(5-methyl-1,2,4-oxadiazol-3-yl)-2,3-dihydro-1H-inden-1-yl)oxazole-5-carboxamide] | 1.2 µM | 3.6 µM
7 | CCc1nc(-c2ccc3c(c2)CCC[C@@H]3NC(=O)c2cnn(C)c2)no1 [Compound 516, (S)-N-(6-(5-ethyl-1,2,4-oxadiazol-3-yl)-1,2,3,4-tetrahydronaphthalen-1-yl)-1-methyl-1H-pyrazole-4-carboxamide] | 39.2 µM | 39.2 µM
8 | CCc1nc(-c2ccc3c(c2)CC[C@H]3NC(=O)c2cnn(C3CNC3)c2)no1 [Compound 484, (R)-1-(azetidin-3-yl)-N-(5-(5-ethyl-1,2,4-oxadiazol-3-yl)-2,3-dihydro-1H-inden-1-yl)-1H-pyrazole-4-carboxamide] | 39.2 µM | 39.2 µM
9 | [2H]C([2H])([2H])c1nc(-c2ccc3c(c2)OC[C@H]3NC(=O)c2cn(C)nc2C)no1 [Compound 270, (S)-1,3-dimethyl-N-(6-(5-(methyl-d3)-1,2,4-oxadiazol-3-yl)-2,3-dihydrobenzofuran-3-yl)-1H-pyrazole-4-carboxamide] | 0.9 µM | 3.1 µM
10 | CCc1nc(-c2ccc3c(c2)CC[C@H]3NC(=O)c2nccn2C)no1 [Compound 579, (R)-N-(5-(5-ethyl-1,2,4-oxadiazol-3-yl)-2,3-dihydro-1H-inden-1-yl)-1-methyl-1H-imidazole-2-carboxamide] | 1.2 µM | 5.1 µM
11 | O=C(NC1CCc2cc(-c3noc(C(F)F)n3)ccc21)c1cncs1 (stereo not shown) [Compound 11, N-(5-(5-(difluoromethyl)-1,2,4-oxadiazol-3-yl)-2,3-dihydro-1H-inden-1-yl)thiazole-5-carboxamide] | 0.8 µM | 3.4 µM
12 | CCc1nc(-c2ccc3c(c2)CC[C@H]3NC(=O)c2cnn(C(C)C(=O)O)c2)no1 (stereo partly drawn) [Compound 531, 2-(4-(((R)-5-(5-ethyl-1,2,4-oxadiazol-3-yl)-2,3-dihydro-1H-inden-1-yl)carbamoyl)-1H-pyrazol-1-yl)propanoic acid] | 4.1 µM | 25.1 µM
13 | O=C(NC1CC1)N[C@@H]1CCc2cc(-c3noc(C(F)F)n3)ccc21 [Compound 289, (R)-1-cyclopropyl-3-(5-(5-(difluoromethyl)-1,2,4-oxadiazol-3-yl)-2,3-dihydro-1H-inden-1-yl)urea] | 39.2 µM | > 39.2 µM
14 | CC(=O)N[C@@H]1COc2cc(-c3noc(C(F)F)n3)ccc21 [Compound 444, (S)-N-(6-(5-(difluoromethyl)-1,2,4-oxadiazol-3-yl)-2,3-dihydrobenzofuran-3-yl)acetamide] | 1.6 µM | 7.9 µM

Continued by falling IC50, values first:

Row | CDMF75 IC15 | IC50 | Compound
15 | 7.4 µM | 36.7 µM | CCc1nc(-c2ccc3c(c2)OC[C@H]3NC(=O)N2CC[C@@H](F)C2)no1 [Compound 743, (R)-N-((S)-6-(5-ethyl-1,2,4-oxadiazol-3-yl)-2,3-dihydrobenzofuran-3-yl)-3-fluoropyrrolidine-1-carboxamide]
16 | 6.5 µM | 31.3 µM | Cc1nc(-c2ccc3c(c2)OC[C@@H]3NC(=O)c2oc(C)nc2C)no1 [Compound 160, (R)-2,4-dimethyl-N-(6-(5-methyl-1,2,4-oxadiazol-3-yl)-2,3-dihydrobenzofuran-3-yl)oxazole-5-carboxamide]
17 | 1.2 µM | 6 µM | Cc1nc(-c2ccc3c(c2)CC[C@H]3NC(=O)c2cccc([C@@H](C)O)c2)no1 [Compound 726, 3-((R)-1-hydroxyethyl)-N-((R)-5-(5-methyl-1,2,4-oxadiazol-3-yl)-2,3-dihydro-1H-inden-1-yl)benzamide]
18 | 1.1 µM | 5.5 µM | CCc1nc(-c2ccc3c(c2)CC[C@H]3NC(=O)c2cnn(CC(=O)O)c2)no1 [Compound 532, (R)-2-(4-((5-(5-ethyl-1,2,4-oxadiazol-3-yl)-2,3-dihydro-1H-inden-1-yl)carbamoyl)-1H-pyrazol-1-yl)acetic acid]
19 | 1.4 µM | 4.8 µM | Cc1nc(-c2ccc3c(c2)CCC3NC(=O)c2c[nH]nc2C)no1 (stereo not shown) [Compound 70, 3-methyl-N-(5-(5-methyl-1,2,4-oxadiazol-3-yl)-2,3-dihydro-1H-inden-1-yl)-1H-pyrazole-4-carboxamide]
20 | 0.9 µM | 3.5 µM | COCc1nc(-c2ccc3c(c2)CC[C@H]3NC(=O)c2nnc(C)o2)no1 [Compound 698, (R)-N-(5-(5-(methoxymethyl)-1,2,4-oxadiazol-3-yl)-2,3-dihydro-1H-inden-1-yl)-5-methyl-1,3,4-oxadiazole-2-carboxamide]
21 | 0.7 µM | 3.4 µM | Cn1cncc1C(=O)NC1CCc2cc(-c3noc(C(F)F)n3)ccc21 (stereo not shown) [Compound 6, N-(5-(5-(difluoromethyl)-1,2,4-oxadiazol-3-yl)-2,3-dihydro-1H-inden-1-yl)-1-methyl-1H-imidazole-5-carboxamide]
22 | 0.4 µM | 1.5 µM | CCc1cc(-c2ccc3c(c2)CC[C@H]3NC(=O)c2cnn(C)c2)no1 [Compound 413, (R)-N-(5-(5-ethylisoxazol-3-yl)-2,3-dihydro-1H-inden-1-yl)-1-methyl-1H-pyrazole-4-carboxamide]
23 | 0.3 µM | 1 µM | CCc1nc(-c2ccc3c(c2)CC[C@H]3NC(=O)c2ccc(=O)[nH]c2)no1 [Compound 603, (R)-N-(5-(5-ethyl-1,2,4-oxadiazol-3-yl)-2,3-dihydro-1H-inden-1-yl)-6-oxo-1,6-dihydropyridine-3-carboxamide]
